Data as given in publication PMC12649225, “Machine Learning-Identified Potent Antimicrobial Peptides Against Multidrug-Resistant Bacteria and Skin Infections” (Antibiotics, 2025).
Values after ≈ are worked out from the molar mass of the structure shown. Read-outs that look alike come from different tables or passages of the source. No end group written: not given here.

Tests used:
[1] = tested on: A. baumannii RUH875; assay type: cell-based
Procedure: (§1) The bacterial strains used in this study included S. aureus JAR060131 [54] and the MDR ESKAPE pathogens Enterococcus faecium LUH15122, S. aureus LUH14616, Klebsiella pneumoniae LUH15104, A. baumannii RUH875 [55], Pseudomonas aeruginosa LUH15103, Enterobacter cloacae LUH15114, and the colistin-resistant Escherichia coli LUH15117. Before each experiment, bacteria from frozen stocks were cultured at 37 °C for 18–24 h on sheep blood agar plates (BioMérieux, Marcy-l’Étoile, France). All strains were then cultured from colonies either in tryptic soy broth (TSB; Oxoid, Basingstoke, UK) for A. baumannii, S. aureus, and E. faecium, or in brain heart infusion broth (BHI; Oxoid) for K. pneumoniae, P. aeruginosa, E. cloacae, and E. coli at 37 °C with shaking at 120 rpm for 18–24 h. Subsequently, bacteria were cultured to mid-logarithmic phase in the media described above at 37 °C with shaking at 120 rpm for 3 h. Bacteria were then washed twice with PBS and diluted to the required inoculum suspension concentration in Roswell Park Memorial Institute (RPMI)-1640 medium containing 20 mM HEPES and L-glutamine but without sodium bicarbonate (Sigma-Aldrich; hereafter referred to as RPMI), based on optical density at 620 nm. RPMI was selected because it supports bacterial growth without impairing AMP activity.
(§2) Bactericidal activity was assessed as described by de Breij et al.. Briefly, mid-logarithmic phase bacterial cultures were diluted to a final concentration of 1 × 10^7 colony-forming units (CFU)/mL in RPMI. Then, 10 µL was added to a final volume of 100 µL in RPMI (final concentration: 1 × 10^6 CFU/mL). Cultures were exposed to peptides either in RPMI or RPMI supplemented with 50% (v/v) human plasma (hereafter referred to as 50% plasma), obtained from four healthy volunteers after informed consent, frozen after collection, and pooled (Sanquin, Amsterdam, The Netherlands). Assays were performed in duplicate using round-bottom polypropylene microtiter plates (Costar, Arlington, VA, USA) and repeated three times. In the initial screening phase (Table 1, Table 2 and Table S1), peptide solutions of 1, 10, and 100 μM (final concentration) were tested against A. baumannii RUH875 and S. aureus JAR060131 in RPMI and in 50% plasma. After this selection process, two lead candidates, their RI variants, and reference peptides were tested with a final concentration range of 0.12 to 120 µM (two-fold dilutions) in RPMI and in 50% plasma (Table 3). The peptides were also tested against ESKAPE pathogens, with Synthetic Antimicrobial and Antibiofilm Peptide (SAAP)-148 as a reference peptide (Table 4).RPMI or 50% plasma served as no-treatment controls. After 2 and 18 h of incubation at 37 °C with shaking at 120 rpm in a humidified environment, the numbers of viable bacteria were quantified. Bactericidal activity was expressed as the lethal concentration 99.9% (LC99.9), defined as the lowest peptide concentration that killed ≥99.9% of bacteria within 2 h (LC99.9_2h) or 18 h (LC99.9_18h) compared to the initial inoculum.

[2] = tested on: S. aureus JAR060131; assay type: cell-based; details: for LC99.9 S. aureus JAR060131 50% Plasma 2 h / LC99.9 S. aureus JAR060131 RPMI 2 h: JAR060131, 2 h
Procedure: as §1, §2

[3] = tested on: A. baumannii RUH875 biofilm; experiment: Biofilm killing; assay type: cell-based, Acinetobacter baumannii; details: for Concentration achieving significant biofilm killing of A. baumannii: at any treatment time (2 h, 24 h), tested up to 120 µM; for A. baumannii biofilm killing, 24 h treatment (in words): up to 120 µM
Procedure: (§3) Mid-logarithmic phase cultures of A. baumannii RUH875 or S. aureus JAR060131 were diluted to 1 × 10^8 CFU/mL in RPMI supplemented with 1% glucose. A total of 100 μL of each suspension was added to flat-bottom polystyrene 96-well microplates (Costar) and incubated under static conditions at 37 °C in a humidified atmosphere for 24 h to allow biofilm formation. After 24 h, planktonic bacteria were removed, and wells were carefully washed with 100 μL PBS [60]. […] Control samples were exposed to 100 μL of PBS only.
(§4) Biofilms were treated at 37 °C for either 2 or 24 h. […] Plates were sealed and sonicated for 5 min (Elmasonic, Singen, Germany; 45 kHz) at room temperature to dislodge adherent bacteria. […] Quantitative cultures were performed by plating serial 10-fold dilutions on sheep blood agar, and results were expressed as log10 CFU per well. The lower limit of detection was three CFU. Each condition was tested in six replicates.

[4] = tested on: S. aureus JAR060131 biofilm; experiment: Biofilm killing; assay type: cell-based, Staphylococcus aureus; details: for S. aureus biofilm killing, 24 h treatment (in words): up to 120 µM; for S. aureus biofilm killing, 24 h treatment (in words) / Concentration giving ≥3-log reduction of S. aureus biofilm CFU within 24 h: 24 h treatment; for Concentration giving ≥3-log reduction of S. aureus biofilm CFU within 24 h: >3 log for BP2 and pexiganan
Procedure: as §3, §4

[5] = tested on: S. aureus JAR060131; experiment: microbe, parasite or virus in culture; assay type: cell-based, Staphylococcus aureus; details: Staphylococcus aureus
Procedure: (§5) The potential for resistance development to GDST-038, GDST-045, and their RI variants was assessed as described by Habets and Brockhurst. Resistance development to the antibiotics rifampicin and ciprofloxacin (both from Sigma-Aldrich) was evaluated for comparison. Briefly, 10 μL of a mid-logarithmic phase culture of A. baumannii RUH875 or S. aureus JAR060131 was added to 90 μL of peptide (final concentrations: 0.23 to 120 μM) or antibiotic (final concentrations: 0.03 to 256 μg/mL) solution in RPMI, in 96-well polypropylene round-bottom plates (Costar). All incubations were performed in quadruplicate. Plates were sealed with breathable seals (Greiner) and incubated at 37 °C with shaking at 120 rpm in a humidified environment for 18 h (S. aureus) or 48 h (A. baumannii).
(§6) The minimum inhibitory concentration (MIC), defined as the lowest concentration that inhibited visible bacterial growth, was then determined. Subsequently, 2 μL from the 0.5-fold MIC condition was transferred to fresh medium containing a concentration series ranging from 0.5- to 8-fold the new MIC. This procedure was repeated over 22 consecutive passages to monitor resistance development.

[6] = tested on: BJ human skin fibroblast cells; experiment: LDH leakage assay (membrane integrity); details: lowest concentration causing >30% LDH leakage; BJ fibroblasts; 24 h; DMEM with 2% FBS; 0.05-60 µM
Procedure: (§7) BJ human skin fibroblast cells (ATCC CRL-2522; RRID: CVCL_3653; LGC Standards, Germany (September 2023)) were cultured in Dulbecco’s Modified Eagle Medium (DMEM; Gibco, Waltham, MA, USA) supplemented with 10% (v/v) foetal bovine serum (FBS; Sigma-Aldrich) and 1% (v/v) penicillin/streptomycin (pen/strep; Gibco). Cell suspensions (5 × 10^5 cells/mL) were seeded into 96-well plates (100 μL/well; Thermo Scientific, Waltham, MA, USA) and allowed to adhere for 24 h. Monolayers were then exposed to two-fold serial dilutions of GDST peptides, their RI variants, and reference peptides (final concentrations: 0.05 to 60 µM) in fresh DMEM with 2% (v/v) FBS for 24 h at 37 °C in a humidified atmosphere with 5% CO2.
(§8) Cell viability and membrane integrity were assessed using the water-soluble tetrazolium salt (WST-1; Roche, Basel, Switzerland) assay and the lactate dehydrogenase (LDH; Abcam, Cambridge, UK) assay, respectively, according to manufacturer instructions. Results were expressed as percentages of metabolic activity and LDH leakage relative to untreated control cells and the positive lysis control, respectively. The cytotoxic concentration was defined as the lowest peptide concentration causing <70% metabolic activity and >30% LDH leakage. All experiments were performed in triplicate.

[7] = tested on: BJ human skin fibroblast cells; experiment: WST-1 metabolic activity assay (cell viability); details: lowest concentration causing <70% metabolic activity (WST-1); BJ fibroblasts; 24 h; DMEM with 2% FBS; 0.05-60 µM
Procedure: as §7, §8

[8] = tested on: A. baumannii RUH875; experiment: microbe, parasite or virus in culture; assay type: cell-based, Acinetobacter baumannii; details: for MIC: Acinetobacter baumannii
Procedure: as §5, §6

[9] = RPMI, 18 h, median of three independent experiments

Molecule	LC99.9 A. baumannii RUH875 50% Plasma 2 h ([1]; RUH875, 2 h) [µM]	LC99.9 A. baumannii RUH875 RPMI 18 h ([1]; RUH875, 18 h) [µM]	LC99.9 S. aureus JAR060131 50% Plasma 2 h [2] [µM]	LC99.9 S. aureus JAR060131 RPMI 2 h [2] [µM]	LC99.9 S. aureus JAR060131 RPMI 18 h ([2]; JAR060131, 18 h) [µM]	Concentration achieving significant biofilm killing of A. baumannii [3] [µM]	S. aureus biofilm killing, 24 h treatment (in words) [4]	Cytotoxicity LDH Leakage >30% [6] [µM]	Cytotoxicity Metabolic Activity <70% [7] [µM]	A. baumannii biofilm killing, 24 h treatment (in words) [3]	Concentration giving ≥3-log reduction of S. aureus biofilm CFU within 24 h [4] [µM]	further results
LRAMCIKWWSGKHPK [TC84, reference compound]	3.75	3.75	7.5	7.5	7.5	> 120	did not exhibit significant biofilm-killing effects	–	–	–	–	–
CO[C@H]1/C=C/O[C@@]2(C)Oc3c(C)c(O)c4c(O)c(c(/C=N/N5CCN(C)CC5)c(O)c4c3C2=O)NC(=O)/C(C)=C\C=C\[C@H](C)[C@H](O)[C@@H](C)[C@@H](O)[C@@H](C)[C@H](OC(C)=O)[C@@H]1C [rifampicin, reference compound]	–	–	–	–	–	–	–	–	–	–	–	MIC ([5]; JAR060131, read-out: MIC S. aureus after 22 passages): 4100 µg/mL (≈ 4980 µM); MIC ([5]; JAR060131, read-out: MIC S. aureus before passaging): 0.25 µg/mL (≈ 0.304 µM)
CC[C@H](C)[C@H](NC(=O)[C@H](CCCCN)NC(=O)[C@H](CCC(=O)O)NC(=O)[C@H](CCCCN)NC(=O)[C@H](CO)NC(=O)[C@H](CCCCN)NC(=O)[C@H](CCCNC(=N)N)NC(=O)[C@H](Cc1ccccc1)NC(=O)[C@H](Cc1ccccc1)NC(=O)[C@H](CC(=O)O)NC(=O)CNC(=O)[C@H](CC(C)C)NC(=O)[C@@H](N)CC(C)C)C(=O)NCC(=O)N[C@@H](CCCCN)C(=O)N[C@@H](CCC(=O)O)C(=O)N[C@@H](Cc1ccccc1)C(=O)N[C@@H](CCCCN)C(=O)N[C@@H](CCCNC(=N)N)C(=O)N[C@H](C(=O)N[C@H](C(=O)N[C@@H](CCC(N)=O)C(=O)N[C@@H](CCCNC(=N)N)C(=O)N[C@H](C(=O)N[C@@H](CCCCN)C(=O)N[C@@H](CC(=O)O)C(=O)N[C@@H](Cc1ccccc1)C(=O)N[C@@H](CC(C)C)C(=O)N[C@@H](CCCNC(=N)N)C(=O)N[C@@H](CC(N)=O)C(=O)N[C@@H](CC(C)C)C(=O)N[C@H](C(=O)N1CCC[C@H]1C(=O)N[C@@H](CCCNC(=N)N)C(=O)N[C@H](C(=O)N[C@@H](CCC(=O)O)C(=O)N[C@@H](CO)C(=O)O)[C@@H](C)O)C(C)C)[C@@H](C)CC)C(C)C)[C@@H](C)CC [LL-37, reference compound]	–	–	–	–	–	> 120	did not exhibit significant biofilm-killing effects	7.5	15	–	–	LC99.9 A. baumannii RUH875 50% Plasma 2 h ([1]; 50% plasma, 2 h, median of three independent experiments): 60 µM; LC99.9 A. baumannii RUH875 50% Plasma 18 h ([1]; 50% plasma, 18 h, median of three independent experiments): 60 µM; LC99.9 A. baumannii RUH875 RPMI 2 h ([1]; RPMI, 2 h, two-fold dilutions 0.12-120 µM, median of three independent experiments): 1.88 µM; LC99.9 A. baumannii RUH875 RPMI 18 h [1, 9]: 1.88 µM; LC99.9 S. aureus JAR060131 RPMI 18 h [2, 9]: > 120 µM
GIGKFLKKAKKFGKAFVKILKK-NH2 (C-terminus assumed) [Pexiganan, reference compound]	0.23	0.47	7.50	0.47	0.23	–	–	–	–	not sustained after 24 h	≥ 30	Concentration killing ≥3 log CFU of A. baumannii biofilm within 2 h ([3]; 24 h biofilm, 2 h treatment in PBS, 1.88-120 μM, vs untreated biofilm): ≥ 30 µM
O=C(O)c1cn(C2CC2)c2cc(N3CCNCC3)c(F)cc2c1=O [ciprofloxacin, reference compound]	–	–	–	–	–	–	–	–	–	–	–	MIC ([8]; RUH875, read-out: MIC A. baumannii after 22 passages): 64 µg/mL (≈ 193 µM); MIC ([8]; RUH875, read-out: MIC A. baumannii before passaging): 0.5 µg/mL (≈ 1.51 µM); MIC increase in A. baumannii after 22 passages ([8]; relative to first passage): 128 fold
GKWKLFKKAFKKFLKILAC [BP2, reference compound]	–	–	–	–	–	–	–	1.88	0.47	complete eradication	≥ 30	Concentration giving complete eradication of S. aureus biofilm within 24 h ([4]; 24 h biofilm, 24 h treatment in PBS): ≥ 60 µM
